In PubChem BioAssay AID256 (DTP/NCI, 2004):
Where “and” joins values, the source holds several entries; their conditions need not be identical. Identical values can stand only once. Inconclusive results and toxic doses are left out. Rule for the calls: active = survival T/C of 150% or more; inactive = T/C below 125% in these data.

Test system: CD2F1 mice, L1210 leukemia ip, survival T/C
Assay: NCI In Vivo Anticancer Drug Screen. Data for tumor model L1210 Leukemia (intraperitoneal) in CD2F1 (CDF1) mice
Conditions: higher = longer survival
How it was run: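 Antitumor effect is scored in animals hosting a serially transplanted tumor. Values compare compound-dosed animals against vehicle-only controls as a simple quotient.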

[1] = endpoint: mean survival time, dose: 100.0 mg/kg/injection, schedule: Q04DX003 (ip), vehicle: saline with Tween-80
[2] = endpoint: mean survival time, dose: 200.0 mg/kg/injection, schedule: Q04DX003 (ip), vehicle: saline with Tween-80
[3] = endpoint: mean survival time, dose: 400.0 mg/kg/injection, schedule: Q04DX003 (ip), vehicle: saline with Tween-80
[4] = endpoint: mean survival time, dose: 100.0 mg/kg/injection, schedule: Q01DX009 (ip), vehicle: saline with Tween-80
[5] = endpoint: mean survival time, dose: 200.0 mg/kg/injection, schedule: Q01DX009 (ip), vehicle: saline with Tween-80
[6] = endpoint: mean survival time, dose: 6.25 mg/kg/injection, schedule: Q04DX003 (ip), vehicle: saline with Tween-80
[7] = endpoint: mean survival time, dose: 12.5 mg/kg/injection, schedule: Q04DX003 (ip), vehicle: saline with Tween-80
[8] = endpoint: mean survival time, dose: 100.0 mg/kg/injection, schedule: Q01DX001 (ip), vehicle: saline with Tween-80
[9] = endpoint: mean survival time, dose: 200.0 mg/kg/injection, schedule: Q01DX001 (ip), vehicle: saline with Tween-80
[10] = endpoint: mean survival time, dose: 400.0 mg/kg/injection, schedule: Q01DX001 (ip), vehicle: saline with Tween-80
[11] = endpoint: mean survival time, dose: 50.0 mg/kg/injection, schedule: Q01DX009 (ip), vehicle: saline with Tween-80

Measured: T/C

CC1CCC[N-]C1.CC1CCC[N-]C1.CC1CCC[N-]C1.CC1CCC[N-]C1.[Cl][Rh][Cl] (stereo not given)
inactive: endpoint: mean survival time, dose: 4.0 mg/kg/injection, schedule: Q01DX009 (ip), vehicle: saline 109 % of control | endpoint: mean survival time, dose: 6.0 mg/kg/injection, schedule: Q01DX009 (ip), vehicle: saline 122 % of control | endpoint: mean survival time, dose: 9.0 mg/kg/injection, schedule: Q01DX009 (ip), vehicle: saline 114 % of control

NC(=O)c1cc2c3ccccc3ncc2c2ccccc12
inactive: [1] 101 % of control | [2] 97 % of control | [3] 94 % of control

C(CCSC1=NCCN1)CSC1=NCCN1
inactive: endpoint: mean survival time, dose: 25.0 mg/kg/injection, schedule: Q04DX002 (ip), vehicle: saline 96 % of control | endpoint: mean survival time, dose: 50.0 mg/kg/injection, schedule: Q04DX002 (ip), vehicle: saline 107 % of control | endpoint: mean survival time, dose: 100.0 mg/kg/injection, schedule: Q04DX002 (ip), vehicle: saline 90 % of control

[Cl][Pt+2][Cl].[NH-]c1cccc(I)c1.[NH-]c1cccc(I)c1
inactive: endpoint: mean survival time, dose: 3.12 mg/kg/injection, schedule: Q04DX003 (ip), vehicle: distilled water + Tween-80 103 % of control | endpoint: mean survival time, dose: 6.25 mg/kg/injection, schedule: Q04DX003 (ip), vehicle: distilled water + Tween-80 110 % of control | endpoint: mean survival time, dose: 12.5 mg/kg/injection, schedule: Q04DX003 (ip), vehicle: distilled water + Tween-80 108 % of control | endpoint: mean survival time, dose: 25.0 mg/kg/injection, schedule: Q04DX003 (ip), vehicle: distilled water + Tween-80 106 % of control | endpoint: mean survival time, dose: 50.0 mg/kg/injection, schedule: Q04DX003 (ip), vehicle: distilled water + Tween-80 112 % of control | endpoint: mean survival time, dose: 100.0 mg/kg/injection, schedule: Q04DX003 (ip), vehicle: distilled water + Tween-80 112 % of control

S=c1ssc(-c2ccccc2)c1-c1ccccc1
inactive: [4] 97 % of control | [1] 87 % of control | [5] 100 % of control | [2] 92 % of control | endpoint: mean survival time, dose: 400.0 mg/kg/injection, schedule: Q01DX009 (ip), vehicle: saline with Tween-80 106 % of control | [3] 93 % of control

CCC1CCCCN1C(=S)N/N=C(\C)c1ccccn1 (stereo not given)
inactive: endpoint: median survival time, dose: 6.25 mg/kg/injection, schedule: Q01DX009 (ip), vehicle: saline with Tween-80 101 % of control | endpoint: median survival time, dose: 12.5 mg/kg/injection, schedule: Q01DX009 (ip), vehicle: saline with Tween-80 108 % of control | endpoint: median survival time, dose: 25.0 mg/kg/injection, schedule: Q01DX009 (ip), vehicle: saline with Tween-80 86 % of control

O/N=C\c1ccc2c(c1)OCCO2
inactive: endpoint: mean survival time, dose: 37.5 mg/kg/injection, schedule: Q01DX009 (ip), vehicle: saline 97 % of control | endpoint: mean survival time, dose: 75.0 mg/kg/injection, schedule: Q01DX009 (ip), vehicle: saline 103 % of control | endpoint: mean survival time, dose: 75.0 mg/kg/injection, schedule: Q04DX003 (ip), vehicle: saline 112 % of control | endpoint: mean survival time, dose: 150.0 mg/kg/injection, schedule: Q01DX009 (ip), vehicle: saline 100 % of control | endpoint: mean survival time, dose: 150.0 mg/kg/injection, schedule: Q04DX003 (ip), vehicle: saline 100 % of control | endpoint: mean survival time, dose: 300.0 mg/kg/injection, schedule: Q04DX003 (ip), vehicle: saline 100 % of control

COc1ccc(-c2c(C(=O)NCCc3ccccc3)[nH]c(-c3ccccc3)c2-c2ccccc2)cc1
inactive: endpoint: mean survival time, dose: 75.0 mg/kg/injection, schedule: Q01DX001 (ip), vehicle: saline 95 % of control | endpoint: mean survival time, dose: 150.0 mg/kg/injection, schedule: Q01DX001 (ip), vehicle: saline 98 % of control

CO[C@H](/C(C)=C/C=C/C(C)=C/c1coc(C)n1)[C@H](C)[C@H]1C[C@@H](O)[C@@]2(C)O[C@H]2/C=C/[C@@H](C)[C@@H]2C[C@@H](CC(=O)O2)C[C@H]2O[C@@H]2C(=O)O1
inactive: endpoint: median survival time, dose: 0.5 mg/kg/injection, schedule: Q01DX009 (ip), vehicle: Klucel (hydroxypropylcellulose) (HPC) 112 % of control | endpoint: median survival time, dose: 20.0 micrograms/kg/injection, schedule: Q01DX009 (ip), vehicle: Klucel (hydroxypropylcellulose) (HPC) 114 % of control | endpoint: median survival time, dose: 40.0 micrograms/kg/injection, schedule: Q01DX009 (ip), vehicle: Klucel (hydroxypropylcellulose) (HPC) 123 % of control and 104 % of control | endpoint: median survival time, dose: 80.0 micrograms/kg/injection, schedule: Q01DX009 (ip), vehicle: Klucel (hydroxypropylcellulose) (HPC) 116 % of control | endpoint: median survival time, dose: 160.0 micrograms/kg/injection, schedule: Q01DX009 (ip), vehicle: Klucel (hydroxypropylcellulose) (HPC) 114 % of control

c1ccc(Sc2cccc3c(-c4ccccc4)c4cccc5c4c(c23)C[S+]5c2ccccc2)cc1 (stereo not given)
inactive: endpoint: mean survival time, dose: 3.13 mg/kg/injection, schedule: Q04DX003 (ip), vehicle: saline with Tween-80 96 % of control | [6] 96 % of control | [7] 93 % of control

ClC1CC2C=CC1C2 (stereo not given)
inactive: [8] 103 % of control | [9] 100 % of control | [10] 102 % of control

CCCCCCCCCCC(=O)CCCCCC
inactive: endpoint: mean survival time, dose: 100.0 mg/kg/injection, schedule: Q04DX003 (ip), vehicle: other 89 % of control | endpoint: mean survival time, dose: 200.0 mg/kg/injection, schedule: Q04DX003 (ip), vehicle: other 92 % of control | endpoint: mean survival time, dose: 400.0 mg/kg/injection, schedule: Q04DX003 (ip), vehicle: other 118 % of control

O=C1NC(=NC2CCCCC2)C2(CCN(CC3COc4ccccc4O3)CC2)N1c1ccccc1 (stereo not given)
inactive: [8] 91 % of control | [9] 95 % of control | [10] 101 % of control

CCOC(=O)c1c(C)[nH]oc1=O
inactive: [4] 96 % of control

CC(Br)C(Br)CO (stereo not given)
inactive: endpoint: mean survival time, dose: 100.0 mg/kg/injection, schedule: Q04DX003 (ip), vehicle: saline 104 % of control | endpoint: mean survival time, dose: 200.0 mg/kg/injection, schedule: Q04DX003 (ip), vehicle: saline 96 % of control | endpoint: mean survival time, dose: 400.0 mg/kg/injection, schedule: Q04DX003 (ip), vehicle: saline 106 % of control

CCCCCCCCCCCCCCCCOc1ccccc1CNc1cc(C(F)(F)F)ccc1Cl
inactive: endpoint: mean survival time, dose: 100.0 mg/kg/injection, schedule: Q01DX009 (ip), vehicle: other 89 % of control | endpoint: mean survival time, dose: 200.0 mg/kg/injection, schedule: Q01DX009 (ip), vehicle: other 103 % of control | endpoint: mean survival time, dose: 400.0 mg/kg/injection, schedule: Q01DX009 (ip), vehicle: other 91 % of control

[Co].[O-][Cl+3]([O-])([O-])O.c1ccc([PH+](CC[PH+](c2ccccc2)c2ccccc2)c2ccccc2)cc1.c1ccc([PH+](CC[PH+](c2ccccc2)c2ccccc2)c2ccccc2)cc1
inactive: [6] 94 % of control | [7] 98 % of control | endpoint: mean survival time, dose: 25.0 mg/kg/injection, schedule: Q04DX003 (ip), vehicle: saline with Tween-80 110 % of control | [2] 91 % of control

C=C1C(=O)OCC1(C(=O)OCC)C(=O)OCC
inactive: endpoint: mean survival time, dose: 5.0 mg/kg/injection, schedule: Q01DX001 (ip), vehicle: saline 100 % of control | endpoint: mean survival time, dose: 10.0 mg/kg/injection, schedule: Q01DX001 (ip), vehicle: saline 100 % of control | endpoint: mean survival time, dose: 20.0 mg/kg/injection, schedule: Q01DX001 (ip), vehicle: saline 100 % of control | endpoint: mean survival time, dose: 40.0 mg/kg/injection, schedule: Q01DX001 (ip), vehicle: saline 108 % of control

Nc1ncnc2nc(-c3ccc(OCc4ccccc4)cc3)[nH]c12
inactive: endpoint: mean survival time, dose: 100.0 mg/kg/injection, schedule: Q01DX001 (ip), vehicle: Klucel (hydroxypropylcellulose) (HPC) 97 % of control | endpoint: mean survival time, dose: 200.0 mg/kg/injection, schedule: Q01DX001 (ip), vehicle: Klucel (hydroxypropylcellulose) (HPC) 89 % of control | endpoint: mean survival time, dose: 400.0 mg/kg/injection, schedule: Q01DX001 (ip), vehicle: Klucel (hydroxypropylcellulose) (HPC) 95 % of control

CS(=O)(=O)c1cc(C(F)(F)F)cc([N+](=O)[O-])c1Cl
inactive: [11] 103 % of control | [4] 103 % of control | [1] 97 % of control | [2] 94 % of control

O=C(O)c1ccc2c(c1Cl)C(=O)c1ccccc1C2=O
inactive: [11] 100 % of control | [4] 103 % of control | [5] 100 % of control

OCC(O)C1OC(OCc2ccccc2)C(O)C(O)C1O (stereo not given)
inactive: endpoint: mean survival time, dose: 100.0 mg/kg/injection, schedule: Q01DX001 (ip), vehicle: saline 101 % of control | endpoint: mean survival time, dose: 200.0 mg/kg/injection, schedule: Q01DX001 (ip), vehicle: saline 98 % of control | endpoint: mean survival time, dose: 400.0 mg/kg/injection, schedule: Q01DX001 (ip), vehicle: saline 98 % of control

CN(N)c1nc2c(=O)[nH]cnc2n1C1OC(CO)C(O)C1O (stereo not given)
inactive: endpoint: mean survival time, dose: 12.5 mg/kg/injection, schedule: Q01DX005 (ip), vehicle: water 104 % of control | endpoint: mean survival time, dose: 25.0 mg/kg/injection, schedule: Q01DX005 (ip), vehicle: water 101 % of control | endpoint: mean survival time, dose: 50.0 mg/kg/injection, schedule: Q01DX005 (ip), vehicle: water 95 % of control | endpoint: mean survival time, dose: 100.0 mg/kg/injection, schedule: Q01DX005 (ip), vehicle: water 103 % of control | endpoint: mean survival time, dose: 200.0 mg/kg/injection, schedule: Q01DX005 (ip), vehicle: water 95 % of control

COc1cc(Cl)ccc1NC(=O)Nc1cc(C)on1
inactive: [11] 100 % of control | [4] 95 % of control | [5] 95 % of control
